Test results: ChEMBL document CHEMBL2417447, “Synthesis and binary QSAR study of antitubercular quinolylhydrazides” (2013)
Values after ≈ are worked out from the molar mass of the structure shown.

Legend:
[1] = tested on: Mycobacterium tuberculosis; experiment: Antitubercular activity against Mycobacterium tuberculosis H37Rv ATCC 27294 after 5 to 8 days by microplate alamar blue assay; format: functional
[2] = tested on: Mycobacterium tuberculosis; experiment: Antimycobacterial activity against Mycobacterium tuberculosis H37Rv ATCC 27294 assessed as growth inhibition at 6.25 ug/ml after 5 to 8 days by microplate alamar blue assay relative to control; format: functional; conditions: read-out: GI

SMILES | MIC [1] [µg/mL] | inhibition of growth at 6.25 µg/mL [2] [%]
O=C1Nc2cc([N+](=O)[O-])ccc2C(=O)/C1=N/Nc1ccc(Br)cc1 | < 6.25 | 100
CO[C@H]1/C=C/O[C@@]2(C)Oc3c(C)c(O)c4c(O)c(c(/C=N/N5CCN(C)CC5)c(O)c4c3C2=O)NC(=O)/C(C)=C\C=C\[C@H](C)[C@H](O)[C@@H](C)[C@@H](O)[C@@H](C)[C@H](OC(C)=O)[C@@H]1C [RIFAMPIN] | 0.015 (≈ 0.0182 µM) | 97
